This is an account of results in ChEMBL document CHEMBL1129702, “Synthesis and pharmacological profile of new 1,3-disubstituted cyclohexanes as leukotriene B4 receptor antagonists” (Bioorg Med Chem Lett, 1996).

Molecules are shown by their SMILES.

The target in test [1] is T1, Leukotriene B4 receptor 1 (Homo sapiens, UniProt Q15722). Nature of the test: Compound was evaluated for inhibitory activity against LTB4 receptor in human neutrophil membranes using [3H]- LTB4 as radioligand. The format is cell membranes.
The target of test [2] is T1, Leukotriene B4 receptor 1. Put plainly: Compound was evaluated for relative binding affinity against LTB4 receptor in human neutrophil membranes using [3H]- LTB4 as radioligand relative to leukotriene B4. It is filed as cell membranes.

T1 sequence (Q15722 whole entry): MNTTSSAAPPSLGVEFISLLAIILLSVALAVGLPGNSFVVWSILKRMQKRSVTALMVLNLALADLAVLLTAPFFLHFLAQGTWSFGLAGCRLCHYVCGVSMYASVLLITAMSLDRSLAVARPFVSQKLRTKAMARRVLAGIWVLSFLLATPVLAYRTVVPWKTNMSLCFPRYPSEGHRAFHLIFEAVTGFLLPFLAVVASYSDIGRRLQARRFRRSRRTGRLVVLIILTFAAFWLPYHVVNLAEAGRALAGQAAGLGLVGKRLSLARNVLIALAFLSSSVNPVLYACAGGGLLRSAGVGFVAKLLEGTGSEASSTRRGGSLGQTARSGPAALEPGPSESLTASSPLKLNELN

In test [1], `CCCCCC(O)/C=C/[C@H]1CCC[C@@](O)(CC(=O)O)C1` (stereo not given in full) returned a half-inhibitory concentration (IC50) of 8 µM. Further, in test [2], the relative binding affinity (RBA) is 0.001.
Turning to `CCCCCCCCC(O)/C=C/[C@H]1CCC[C@@](O)(CC(=O)O)C1` (stereo not given in full), the half-inhibitory concentration (IC50) in test [1] was determined as 1 µM. Also, the relative binding affinity (RBA) in test [2] worked out at 0.008.
In turn, `O=C(O)C[C@]1(O)CCC[C@H](/C=C/C(O)CCCCc2ccccc2)C1` (stereo in doubt; 1d1) [listing 1 of 2 here] gave a relative binding affinity (RBA) in test [2] of 0.025.
For the compound `O=C(O)C[C@]1(O)CCC[C@H](/C=C/C(O)CCCCc2ccccc2)C1` (stereo in doubt; 1d) [listing 1 of 2 here], in test [1], the concentration for half-maximal inhibition (IC50) is 0.8 µM.
The compound `O=C(O)C[C@]1(O)CCC[C@H](/C=C/C(O)CCCCc2ccccc2)C1` (stereo in doubt; 1d) [listing 2 of 2 here] gave a relative binding affinity (RBA) in test [2] of 0.01.
Consider `CCCCCC(O)/C=C/[C@H]1CCC[C@@](O)(CCCC(=O)O)C1` (stereo not given in full), for which the IC50 in test [1] came to 70 µM.
Same read-out and setting: then `O=C(O)C[C@]1(O)CCC[C@H](/C=C/C(O)CCCCc2ccccc2)C1` (stereo in doubt; 1d2), with 70 µM; and `O=C(O)C[C@]1(O)CCC[C@H](/C=C/C(O)CCCCc2ccccc2)C1` (stereo in doubt; 1d1) [listing 2 of 2 here], with 0.3 µM.
